Reference: ChEMBL document CHEMBL4825757, “Optimization of 4,6-Disubstituted Pyrido[3,2-d]pyrimidines as Dual MNK/PIM Inhibitors to Inhibit Leukemia Cell Growth” (J Med Chem, 2021)
pIC50: −log10 of the molar value. The source made the active and inactive calls. The rule behind the calls is not given here.

Columns and labels:
MOLM-13 [1] = experiment: Induction of apoptosis in human MOLM-13 cells assessed as late apoptotic cells at 2 uM incubated for 12 hrs by annexin-V and propidium iodide staining based flow cytometry analysis (reference value: 3.03%); assay type: functional
MOLM-13 [2] = experiment: Induction of apoptosis in human MOLM-13 cells assessed as necrotic cells at 2 uM incubated for 12 hrs by annexin-V and propidium iodide staining based flow cytometry analysis (reference value: 0.06%); assay type: functional
MOLM-13 [3] = experiment: Induction of apoptosis in human MOLM-13 cells assessed as live cells at 2 uM incubated for 12 hrs by annexin-V and propidium iodide staining based flow cytometry analysis (reference value: 91.49%); assay type: functional
[4] = target: T1, Serine/threonine-protein kinase PIM (Homo sapiens) (UniProt P11309+Q9P1W9+Q86V86); experiment: Inhibition of PIM in human MOLM-13 cells assessed as reduction in phosphorylated 4EBP1 at 1 to 2 uM incubated for 12 hrs by western blot analysis; assay type: cell-based; details: dose 1-2 µM
T1 sequence (P11309 whole entry, looked up): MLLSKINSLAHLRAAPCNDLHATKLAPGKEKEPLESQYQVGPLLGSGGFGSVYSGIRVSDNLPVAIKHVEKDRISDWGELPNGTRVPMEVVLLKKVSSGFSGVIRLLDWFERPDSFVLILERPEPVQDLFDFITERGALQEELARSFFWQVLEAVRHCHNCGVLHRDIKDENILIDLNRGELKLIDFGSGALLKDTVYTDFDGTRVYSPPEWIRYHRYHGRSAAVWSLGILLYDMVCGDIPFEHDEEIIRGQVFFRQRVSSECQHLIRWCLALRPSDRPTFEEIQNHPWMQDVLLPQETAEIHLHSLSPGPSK
T1 sequence (Q9P1W9 whole entry, looked up): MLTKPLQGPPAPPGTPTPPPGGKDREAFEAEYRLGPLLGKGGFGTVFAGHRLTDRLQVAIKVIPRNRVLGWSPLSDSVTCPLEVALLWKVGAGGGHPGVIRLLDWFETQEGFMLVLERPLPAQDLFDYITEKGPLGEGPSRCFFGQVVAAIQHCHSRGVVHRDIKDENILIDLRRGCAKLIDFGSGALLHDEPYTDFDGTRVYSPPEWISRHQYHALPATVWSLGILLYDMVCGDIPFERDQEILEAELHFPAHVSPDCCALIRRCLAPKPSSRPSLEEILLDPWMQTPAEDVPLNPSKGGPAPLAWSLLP

MOLM-13 [5] = experiment: Induction of apoptosis in human MOLM-13 cells assessed as late apoptotic cells at 1 uM incubated for 12 hrs by annexin-V and propidium iodide staining based flow cytometry analysis (reference value: 3.03%); assay type: functional
MOLM-13 [6] = experiment: Antiproliferative activity against human MOLM13 cells assessed as reduction of cell viability incubated for 72 hrs by trypan blue staining based cell counting analysis; assay type: functional
MOLM-13 [7] = experiment: Downregulation of cyclin-D1 levels in human MOLM-13 cells at 1 to 2 uM incubated for 12 hrs by western blot analysis; assay type: functional, cell-based; details: dose 1-2 µM
MOLM-13 [8] = experiment: Induction of cell cycle arrest in human MOLM-13 cells assessed as G1 phase at 1 uM incubated for 12 hr by propidium iodide based flow cytometry analysis (Rvb= 51.29%); assay type: functional
HL-60 = experiment: Antiproliferative activity against human HL-60 cells assessed as reduction of cell viability incubated for 72 hrs by trypan blue staining based cell counting analysis; assay type: functional
K562 [9] = experiment: Downregulation of cyclin-D1 levels in human K562 cells at 1 to 2 uM incubated for 24 hrs by western blot analysis; assay type: functional, cell-based; details: dose 1-2 µM
K562 [10] = experiment: Downregulation of c-myc levels in human K562 cells at 1 to 2 uM incubated for 24 hrs by western blot analysis; assay type: functional, cell-based; details: dose 1-2 µM
MOLM-13 [11] = experiment: Induction of apoptosis in human MOLM-13 cells assessed as early apoptotic cells at 1 uM incubated for 12 hrs by annexin-V and propidium iodide staining based flow cytometry analysis (reference value: 5.40%); assay type: functional
MOLM-13 [12] = experiment: Induction of cell cycle arrest in human MOLM-13 cells assessed as G1 phase at 2 uM incubated for 12 hr by propidium iodide based flow cytometry analysis (Rvb= 51.29%); assay type: functional
[13] = target: MAP kinase-interacting serine/threonine-protein kinase 1/2 (Homo sapiens) (UniProt Q9HBH9+Q9BUB5); experiment: Inhibition of MNK1/MNK2 in human MOLM-13 cells assessed as reduction in eIF4E phosphorylation at 1 to 2 uM incubated for 12 hrs by western blot analysis; assay type: cell-based; details: dose 1-2 µM
MOLM-13 [14] = experiment: Induction of apoptosis in human MOLM-13 cells assessed as necrotic cells at 1 uM incubated for 12 hrs by annexin-V and propidium iodide staining based flow cytometry analysis (reference value: 0.06%); assay type: functional
[15] = target: T1, Serine/threonine-protein kinase PIM (Homo sapiens); experiment: Inhibition of PIM in human MOLM-13 cells assessed as reduction of BAD phosphorylation at 1 to 2 uM incubated for 12 hrs by western blot analysis; assay type: cell-based; details: dose 1-2 µM
K562 [16] = experiment: Antiproliferative activity against human K562 cells assessed as reduction of cell viability incubated for 72 hrs by trypan blue staining based cell counting analysis; assay type: functional
MOLM-13 [17] = experiment: Downregulation of c-myc levels in human MOLM-13 cells at 1 to 2 uM incubated for 12 hrs by western blot analysis; assay type: functional, cell-based; details: dose 1-2 µM
K562 [18] = experiment: Downregulation of mcl-1 levels in human K562 cells at 1 to 2 uM incubated for 24 hrs by western blot analysis; assay type: functional, cell-based; details: dose 1-2 µM
MOLM-13 [19] = experiment: Induction of cell cycle arrest in human MOLM-13 cells assessed as sub-G1 phase at 1 uM incubated for 12 hr by propidium iodide based flow cytometry analysis (Rvb= 4.78%); assay type: functional
MOLM-13 [20] = experiment: Induction of apoptosis in human MOLM-13 cells assessed as early apoptotic cells at 2 uM incubated for 12 hrs by annexin-V and propidium iodide staining based flow cytometry analysis (reference value: 5.40%); assay type: functional
MOLM-13 [21] = experiment: Induction of apoptosis in human MOLM-13 cells assessed as live cells at 1 uM incubated for 12 hrs by annexin-V and propidium iodide staining based flow cytometry analysis (reference value: 91.49%); assay type: functional
MOLM-13 [22] = experiment: Induction of cell cycle arrest in human MOLM-13 cells assessed as sub-G1 phase at 2 uM incubated for 12 hr by propidium iodide based flow cytometry analysis (Rvb= 4.78%); assay type: functional
MOLM-13 [23] = experiment: Downregulation of mcl-1 levels in human MOLM-13 cells at 1 to 2 uM incubated for 12 hrs by western blot analysis; assay type: functional, cell-based; details: dose 1-2 µM
[24] = target: T2, MAP kinase-interacting serine/threonine-protein kinase 1 (Homo sapiens, UniProt Q9BUB5); experiment: Inhibition of MKN1 (unknown origin) in presence of ATP by HTRF assay
Target sequence in this assay (Q9BUB5 whole entry): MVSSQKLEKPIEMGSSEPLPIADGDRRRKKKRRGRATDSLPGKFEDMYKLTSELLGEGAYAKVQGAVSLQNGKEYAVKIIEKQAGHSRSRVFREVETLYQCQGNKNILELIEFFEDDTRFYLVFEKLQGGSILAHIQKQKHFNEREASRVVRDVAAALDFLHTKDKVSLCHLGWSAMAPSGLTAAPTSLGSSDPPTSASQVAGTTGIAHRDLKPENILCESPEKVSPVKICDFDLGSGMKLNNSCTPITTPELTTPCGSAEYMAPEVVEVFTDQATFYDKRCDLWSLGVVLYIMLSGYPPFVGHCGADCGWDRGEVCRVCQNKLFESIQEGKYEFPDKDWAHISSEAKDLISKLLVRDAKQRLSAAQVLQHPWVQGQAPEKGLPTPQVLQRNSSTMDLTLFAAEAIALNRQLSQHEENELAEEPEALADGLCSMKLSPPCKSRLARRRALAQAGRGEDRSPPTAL

[25] = target: MAP kinase-interacting serine/threonine-protein kinase 2 (Homo sapiens, UniProt Q9HBH9); experiment: Inhibition of MKN2 (unknown origin) in presence of ATP by HTRF assay
MAP kinase-interacting serine/threonine-protein kinase 2, sequence (Q9HBH9 whole entry): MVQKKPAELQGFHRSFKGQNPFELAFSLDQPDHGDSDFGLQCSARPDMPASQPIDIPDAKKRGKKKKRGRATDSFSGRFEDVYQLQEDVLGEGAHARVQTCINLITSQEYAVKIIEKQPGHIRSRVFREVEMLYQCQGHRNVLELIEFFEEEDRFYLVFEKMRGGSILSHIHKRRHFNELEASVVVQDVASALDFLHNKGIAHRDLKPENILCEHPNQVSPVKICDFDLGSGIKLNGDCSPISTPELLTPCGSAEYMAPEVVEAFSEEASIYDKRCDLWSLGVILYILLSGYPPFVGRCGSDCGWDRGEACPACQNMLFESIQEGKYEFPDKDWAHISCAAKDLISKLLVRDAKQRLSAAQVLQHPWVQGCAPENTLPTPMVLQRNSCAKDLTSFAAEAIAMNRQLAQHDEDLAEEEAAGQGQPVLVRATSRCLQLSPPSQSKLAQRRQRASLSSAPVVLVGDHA

[26] = target: T2, MAP kinase-interacting serine/threonine-protein kinase 1; experiment: Inhibition of MKN1 (unknown origin) at 1 uM in presence of ATP by HTRF assay
Target sequence in this assay (Q9BUB5 whole entry, looked up): as the sequence (Q9BUB5 whole entry) above

[27] = Metabolic stability in rat liver microsomes assessed as half life preincubated for 10 mins followed by NADPH addition and further incubated upto 60 mins by LC-MS/MS analysis; assay type: ADME, Microsome; details: time <=70 min
[28] = Intrinsic clearance in human liver microsomes preincubated for 10 mins followed by NADPH addition and further incubated upto 60 mins by LC-MS/MS analysis; assay type: ADME, Microsome; details: time <=70 min, read-out: CLH
[29] = Intrinsic clearance in rat liver microsomes preincubated for 10 mins followed by NADPH addition and further incubated upto 60 mins by LC-MS/MS analysis; assay type: ADME, Microsome; details: time <=70 min, read-out: CLH

CN1CCC(CNc2ccc3ncc(-c4cccc(OC(F)(F)F)c4)n3n2)CC1 [SGI-1776]
Activity (MOLM-13 [1]): 4.23% | Activity (MOLM-13 [2]): 0.13% | Activity (MOLM-13 [3]): 64.56% | inhibition [4]: Active | Activity (MOLM-13 [5]): 4.05% | GI50 (MOLM-13 [6]): 0.13 µM | Activity (MOLM-13 [7]): Active | Activity (MOLM-13 [8]): 67.94% | GI50 (HL-60): 1.28 µM | Activity (K562 [9]): inactive | Activity (K562 [10]): inactive | Activity (MOLM-13 [11]): 24.57% | Activity (MOLM-13 [12]): 58.06% | inhibition [13]: inactive | Activity (MOLM-13 [14]): 0.22% | inhibition [15]: Active | GI50 (K562 [16]): 2.19 µM | Activity (MOLM-13 [17]): Active | Activity (K562 [18]): inactive | Activity (MOLM-13 [19]): 15.68% | Activity (MOLM-13 [20]): 31.08% | Activity (MOLM-13 [21]): 71.17% | Activity (MOLM-13 [22]): 26.08% | Activity (MOLM-13 [23]): Active

O=C(c1cccc(C#Cc2ccccc2Nc2ncnc3ccc(Cl)nc23)c1)N1CCOCC1
pIC50 [24]: < 5.00 | pIC50 [25]: < 5.00

COC(=O)c1cccc(C#Cc2ccccc2Nc2ncnc3ccc(Cl)nc23)c1
pIC50 [24]: < 5.00 | pIC50 [25]: 5.38

COC(=O)c1oc2ccc(Nc3ncnc4ccc(Cl)nc34)cc2c1C
pIC50 [24]: < 5.00 | pIC50 [25]: 5.32

CNC(=O)c1ccc(-c2ccc3ncnc(Nc4ccccc4)c3n2)cc1
GI50 (MOLM-13 [6]): 1.83 µM | inhibition [26]: 37% | pIC50 [25]: 7.24

Cc1ncc2n1-c1ccc(Cl)cc1C(c1ccccc1F)=NC2 [MIDAZOLAM]
half-life [27]: 2.64 min | CLint scaled [28]: 219 mL/min/kg | CLint scaled [29]: 939 mL/min/kg

CCCNC(=O)c1oc2ccc(Nc3ncnc4ccc(Cl)nc34)cc2c1C
pIC50 [24]: < 5.00 | pIC50 [25]: 5.72

O=C(c1ccc(-c2ccc3ncnc(Nc4cccc(F)c4)c3n2)cc1)N1CCNCC1
GI50 (MOLM-13 [6]): 3.8 µM | inhibition [26]: 70% | pIC50 [25]: 7.48

O=C(c1ccc(-c2ccc3ncnc(Nc4ccc(C(F)(F)F)cc4)c3n2)cc1)N1CCNCC1
GI50 (MOLM-13 [6]): 2.67 µM | inhibition [26]: 0% | pIC50 [25]: 7.39

O=C(c1ccc(-c2ccc3ncnc(Nc4ccccc4)c3n2)cc1)N1CCNCC1
GI50 (MOLM-13 [6]): 3.19 µM | inhibition [26]: 71% | pIC50 [25]: 7.44

COc1cc(F)ccc1Nc1ncnc2ccc(-c3ccc(C(=O)N4CCNCC4)cc3)nc12
GI50 (MOLM-13 [6]): 1.88 µM | inhibition [26]: 89% | pIC50 [24]: 8.92 | pIC50 [25]: 7.54

CNC(=O)c1cccc(C#Cc2ccccc2Nc2ncnc3ccc(Cl)nc23)c1
pIC50 [24]: < 5.00 | pIC50 [25]: 5.31

N#Cc1ccc(Nc2ncnc3ccc(-c4ccc(C(=O)N5CCNCC5)cc4)nc23)cc1
inhibition [26]: 88% | pIC50 [24]: 9.82 | pIC50 [25]: 7.37

O=C(c1cccc(-c2ccc3ncnc(Nc4ccccc4)c3n2)c1)N1CCNCC1
GI50 (MOLM-13 [6]): 3.92 µM | inhibition [26]: 57% | pIC50 [25]: 6.20

c1ccc(Nc2ncnc3ccc(-c4ccccc4)nc23)cc1
inhibition [26]: 0% | pIC50 [25]: 6.21
